# Literature values as cited in paper PMC12347832, “Multi-Component Synthesis of New Fluorinated-Pyrrolo[3,4-b]pyridin-5-ones Containing the 4-Amino-7-chloroquinoline Moiety and In Vitro–In Silico Studies Against Human SARS-CoV-2” (International Journal of Molecular Sciences, 2025).
# Tested on: SARS-CoV-2
# Settings: cited from earlier work
smiles,measurement,value
CCN(CC)CCCC(C)Nc1ccnc2cc(Cl)ccc12 (stereo not shown) [Chloroquine],IC50,1130 nM
